Reference: US20160101148A1, “TREATMENT AND PREVENTION OF BACTERIAL SKIN INFECTIONS USING ORITAVANCIN” (priority 2013, published 2016)
In brackets after ≈: the same amount, converted by molar mass. Read-outs that look alike come from different tables or passages of the source.

What was measured:
[1] = tested on: S. aureus strains (14 mecC MRSA, 2 mecA MRSA, ATCC 29213 MSSA); experiment: Broth microdilution MIC determination; format: cell-based, Staphylococcus aureus; details: Staphylococcus aureus; for MIC: read-out: MIC; for MIC90: mecC strains, read-out: MIC90
Procedure: The S. aureus (SA) strains used in this study were: ATCC 43300 (mecA methicillin-resistant SA [MRSA]); ATCC 33591 (mecA MRSA), ATCC 29213 (methicillin-susceptible SA; quality control strain) and 14 mecC MRSA obtained from the Staten Serum Institute (Copenhagen, Denmark).
Tests with oritavancin included polysorbate-80 (final test concentration of 0.002%) as described (CLSI 2012a; Arhin et al., 2008). Tests with daptomycin included CaCl2 at a concentration of 50 mg/L. MICs were read after 24 h incubation.

[2] = tested on: S. aureus strains (14 mecC MRSA, 2 mecA MRSA, ATCC 29213 MSSA); experiment: In vitro time-kill assays at free peak and free trough concentrations; format: cell-based, Staphylococcus aureus; details: for Time to cidality (≧3 log decrease): daptomycin ƒCmax 4 mg/L; for Change in cell density at 24 h relative to starting inoculum: daptomycin ƒCmin 0.5 mg/L
Procedure: Viable cell count was determined by serial dilution plating, including the use of 25 g/L charcoal suspension to limit antibiotic carryover. […] Time-kill assays were repeated at least twice independently; results presented are from a representative experiment.
Doubling dilution concentrations of comparator agents were likewise chosen to approximate their fCmax and fCmin levels in plasma when administered at approved dosages for complicated skin and skin structure infections, using pharmacokinetic data and protein binding values from their respective package inserts (DAP [Cubicin®]; LZD [Zyvox®]; VAN [Vancocin®]; Table 3).

[3] = ATCC 29213 / ATCC 33591 / MRSA / MSSA, ATCC 33591 MRSA (mecA)
[4] = ATCC 29213 / ATCC 43300 / MRSA / MSSA, ATCC 43300 MRSA (mecA)

For `CC(=O)NC[C@H]1CN(c2ccc(N3CCOCC3)c(F)c2)C(=O)O1` [Linezolid, linezolid], the MIC ([1]; 57147 MRSA (mecC)) was 2 µg/mL (≈ 5.93 µM), the MIC ([1]; 70611 MRSA (mecC)) was 2 µg/mL (≈ 5.93 µM) and the MIC ([1]; 73348 MRSA (mecC)) was 2 µg/mL (≈ 5.93 µM). It also gave an MIC ([1]; 73415 MRSA (mecC)) of 2 µg/mL (≈ 5.93 µM), an MIC ([1]; 73617 MRSA (mecC)) of 2 µg/mL (≈ 5.93 µM) and an MIC ([1]; 73829 MRSA (mecC)) of 2 µg/mL (≈ 5.93 µM). For the same compound, the MIC ([1]; 75814 MRSA (mecC)) was 2 µg/mL (≈ 5.93 µM), the MIC ([1]; 76918 MRSA (mecC)) was 2 µg/mL (≈ 5.93 µM) and the MIC ([1]; 77431 MRSA (mecC)) was 2 µg/mL (≈ 5.93 µM). It also gave an MIC ([1]; 77601 MRSA (mecC)) of 2 µg/mL (≈ 5.93 µM), an MIC ([1]; 77950 MRSA (mecC)) of 2 µg/mL (≈ 5.93 µM) and an MIC ([1]; 77964 MRSA (mecC)) of 2 µg/mL (≈ 5.93 µM). The MIC ([1]; 78085 MRSA (mecC)) was 2 µg/mL (≈ 5.93 µM), the MIC ([1]; 78651 MRSA (mecC)) was 2 µg/mL (≈ 5.93 µM) and the MIC ([1]; ATCC 29213 (MSSA)) was 2 µg/mL (≈ 5.93 µM). The MIC [1, 3] was 2 µg/mL (≈ 5.93 µM), the MIC [1, 4] was 1 µg/mL (≈ 2.96 µM) and the MIC ([1]; all strains tested) was 1 to 2 µg/mL (≈ 2.96 to 5.93 µM). For the same compound, the MIC90 [1] was 2 µg/mL (≈ 5.93 µM) and the “Activity in time-kill assay” value ([2]; all tested strains, both fCmin and fCmax) was “little to no effect or was bacteriostatic”.
Work on `CCCCCCCCCC(=O)N[C@@H](Cc1c[nH]c2ccccc12)C(=O)N[C@H](CC(N)=O)C(=O)N[C@@H](CC(=O)O)C(=O)N[C@@H]1C(=O)NCC(=O)N[C@@H](CCCN)C(=O)N[C@@H](CC(=O)O)C(=O)N[C@H](C)C(=O)N[C@@H](CC(=O)O)C(=O)NCC(=O)N[C@H](CO)C(=O)N[C@@H]([C@H](C)CC(=O)O)C(=O)N[C@@H](CC(=O)c2ccccc2N)C(=O)O[C@@H]1C` [Daptomycin, daptomycin] yielded an MIC ([1]; 57147 MRSA (mecC)) of 0.5 µg/mL (≈ 0.309 µM), an MIC ([1]; 70611 MRSA (mecC)) of 0.5 µg/mL (≈ 0.309 µM) and an MIC ([1]; 73348 MRSA (mecC)) of 0.5 µg/mL (≈ 0.309 µM). For the same compound, the MIC ([1]; 73415 MRSA (mecC)) was 1 µg/mL (≈ 0.617 µM), the MIC ([1]; 73617 MRSA (mecC)) was 1 µg/mL (≈ 0.617 µM) and the MIC ([1]; 73829 MRSA (mecC)) was 0.5 µg/mL (≈ 0.309 µM). The MIC ([1]; 75814 MRSA (mecC)) was 0.5 µg/mL (≈ 0.309 µM), the MIC ([1]; 76918 MRSA (mecC)) was 0.5 µg/mL (≈ 0.309 µM) and the MIC ([1]; 77431 MRSA (mecC)) was 1 µg/mL (≈ 0.617 µM). It also gave an MIC ([1]; 77601 MRSA (mecC)) of 0.5 µg/mL (≈ 0.309 µM), an MIC ([1]; 77950 MRSA (mecC)) of 0.5 µg/mL (≈ 0.309 µM) and an MIC ([1]; 77964 MRSA (mecC)) of 0.5 µg/mL (≈ 0.309 µM). For the same compound, the MIC ([1]; 78085 MRSA (mecC)) was 1 µg/mL (≈ 0.617 µM), the MIC ([1]; 78651 MRSA (mecC)) was 0.5 µg/mL (≈ 0.309 µM) and the MIC ([1]; ATCC 29213 (MSSA)) was 0.5 µg/mL (≈ 0.309 µM). It also gave an MIC [1, 3] of 1 µg/mL (≈ 0.617 µM), an MIC [1, 4] of 0.5 µg/mL (≈ 0.309 µM) and an MIC ([1]; all strains tested) of 0.5 to 1 µg/mL (≈ 0.309 to 0.617 µM). For the same compound, the MIC90 [1] was 1 µg/mL (≈ 0.617 µM), the “Time to cidality (≧3 log decrease)” value ([2]; 57147 (mecC)) was 1-2 h and the “Change in cell density at 24 h relative to starting inoculum” value ([2]; 57147 (mecC)) was “+2.7 log CFU/mL”. The “Time to cidality (≧3 log decrease)” value ([2]; 70611 (mecC)) was 1-2 h, the “Change in cell density at 24 h relative to starting inoculum” value ([2]; 70611 (mecC)) was “+1.5 log CFU/mL” and the “Change in cell density at 24 h relative to starting inoculum” value ([2]; 73348 (mecC)) was “+2.6 log CFU/mL”. The “Time to cidality (≧3 log decrease)” value ([2]; 73415 (mecC)) was 2-4 h, the “Change in cell density at 24 h relative to starting inoculum” value ([2]; 73415 (mecC)) was “+1.5 log CFU/mL” and the “Time to cidality (≧3 log decrease)” value ([2]; 73617 (mecC)) was 1-2 h. The “Change in cell density at 24 h relative to starting inoculum” value ([2]; 73617 (mecC)) was “+3.4 log CFU/mL”, the “Time to cidality (≧3 log decrease)” value ([2]; 73829 (mecC)) was 1-2 h and the “Change in cell density at 24 h relative to starting inoculum” value ([2]; 73829 (mecC)) was “+2.1 log CFU/mL”. The “Time to cidality (≧3 log decrease)” value ([2]; 75814 (mecC)) was 1-2 h, the “Change in cell density at 24 h relative to starting inoculum” value ([2]; 75814 (mecC)) was “+3.6 log CFU/mL” and the “Time to cidality (≧3 log decrease)” value ([2]; 76918 (mecC)) was 1-2 h. For the same compound, the “Change in cell density at 24 h relative to starting inoculum” value ([2]; 76918 (mecC)) was “+1.5 log CFU/mL”, the “Time to cidality (≧3 log decrease)” value ([2]; 77431 (mecC)) was 1-2 h and the “Change in cell density at 24 h relative to starting inoculum” value ([2]; 77431 (mecC)) was “+1.9 log CFU/mL”. The “Change in cell density at 24 h relative to starting inoculum” value ([2]; 77601 (mecC)) was “+0.1 log CFU/mL”, the “Time to cidality (≧3 log decrease)” value ([2]; 77950 (mecC)) was 1-2 h and the “Change in cell density at 24 h relative to starting inoculum” value ([2]; 77950 (mecC)) was “+0.9 log CFU/mL”. The “Time to cidality (≧3 log decrease)” value ([2]; 77964 (mecC)) was 1-2 h, the “Change in cell density at 24 h relative to starting inoculum” value ([2]; 77964 (mecC)) was “+1.2 log CFU/mL” and the “Time to cidality (≧3 log decrease)” value ([2]; 78085 (mecC)) was 2-4 h. The “Change in cell density at 24 h relative to starting inoculum” value ([2]; 78085 (mecC)) was “+1.5 log CFU/mL”, the “Change in cell density at 24 h relative to starting inoculum” value ([2]; 78651 (mecC)) was “+1.6 log CFU/mL” and the “Time to cidality (≧3 log decrease)” value ([2]; ATCC 29213 (MSSA)) was 2-4 h. The “Change in cell density at 24 h relative to starting inoculum” value ([2]; ATCC 29213 (MSSA)) was “+3.9 log CFU/mL”, the “Change in cell density at 24 h relative to starting inoculum” value ([2]; ATCC 33591 (mecA)) was “+3.8 log CFU/mL” and the “Time to cidality (≧3 log decrease)” value ([2]; ATCC 43300 (mecA)) was 1-2 h. For the same compound, the “Change in cell density at 24 h relative to starting inoculum” value ([2]; ATCC 43300 (mecA)) was “+3.6 log CFU/mL” and the “Activity in time-kill assay” value ([2]; S. aureus strains, fCmin) was “little to no effect or was bacteriostatic”.
